Reference: PMC9719519, “Non-classical ferroptosis inhibition by a small molecule targeting PHB2” (Nature Communications, 2022)

Experiments:
ALK(h) = ALK(h) (Homo sapiens, UniProt Q9UM73); test: biochemical; parameters: Eurofins recombinant human kinase profiling, remaining kinase activity as % of control, 10 uM ATP; conditions: ATP 10 uM; read-out: %Ctrl@10 μM
In short: (§1)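 Activity measured in a commercial panel of 401 recombinant human protein kinases run as a kinase profiling service.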

ALK1(h) = target: T1, ALK1(h) (Homo sapiens, UniProt P37023); test: biochemical; parameters: Eurofins recombinant human kinase profiling, remaining kinase activity as % of control, 10 uM ATP; conditions: ATP 10 uM; read-out: %Ctrl@10 μM
T1 construct: gene ACVRL1
In short: as §1

EphB2(h) = EphB2(h) (Homo sapiens, UniProt P29323); test: biochemical; parameters: Eurofins recombinant human kinase profiling, remaining kinase activity as % of control, 10 uM ATP; conditions: ATP 10 uM; read-out: %Ctrl@10 μM
In short: as §1

FGFR2(N549H)(h) = FGFR2(N549H)(h) (Homo sapiens, UniProt P21802, N549H); test: biochemical; parameters: Eurofins recombinant human kinase profiling, remaining kinase activity as % of control, 10 uM ATP; conditions: ATP 10 uM; read-out: %Ctrl@10 μM
In short: as §1

GSK3β(h) = target: T2, GSK3β(h) (Homo sapiens, UniProt P49841); test: biochemical; parameters: Eurofins recombinant human kinase profiling, remaining kinase activity as % of control, 10 uM ATP; conditions: ATP 10 uM; read-out: %Ctrl@10 μM
T2 construct: gene GSK3B
T2 sequence (P49841 whole entry): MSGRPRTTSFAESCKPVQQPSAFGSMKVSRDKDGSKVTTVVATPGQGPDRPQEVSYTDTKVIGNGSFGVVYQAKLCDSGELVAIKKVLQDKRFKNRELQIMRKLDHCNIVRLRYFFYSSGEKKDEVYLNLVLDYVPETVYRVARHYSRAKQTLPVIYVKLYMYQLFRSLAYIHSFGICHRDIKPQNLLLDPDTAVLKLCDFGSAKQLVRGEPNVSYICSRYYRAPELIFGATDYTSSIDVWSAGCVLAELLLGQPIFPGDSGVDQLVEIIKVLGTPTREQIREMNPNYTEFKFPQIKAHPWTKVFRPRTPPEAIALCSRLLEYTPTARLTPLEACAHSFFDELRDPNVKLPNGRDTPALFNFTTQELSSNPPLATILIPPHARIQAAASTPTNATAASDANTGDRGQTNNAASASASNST
In short: as §1

HRI(h) = target: T3, HRI(h) (Homo sapiens, UniProt Q9BQI3); test: biochemical; parameters: Eurofins recombinant human kinase profiling, remaining kinase activity as % of control, 10 uM ATP; conditions: ATP 10 uM; read-out: %Ctrl@10 μM
T3 construct: gene EIF2AK1
In short: as §1

IKKβ(h) = target: T4, IKKβ(h) (Homo sapiens, UniProt O14920); test: biochemical; parameters: Eurofins recombinant human kinase profiling, remaining kinase activity as % of control, 10 uM ATP; conditions: ATP 10 uM; read-out: %Ctrl@10 μM
T4 construct: gene IKBKB
In short: as §1

MLCK(h) = target: T5, MLCK(h) (Homo sapiens, UniProt Q15746); test: biochemical; parameters: Eurofins recombinant human kinase profiling, remaining kinase activity as % of control, 10 uM ATP; conditions: ATP 10 uM; read-out: %Ctrl@10 μM
T5 construct: gene MYLK
In short: as §1

MST1(h) = target: T6, MST1(h) (Homo sapiens, UniProt Q13043); test: biochemical; parameters: Eurofins recombinant human kinase profiling, remaining kinase activity as % of control, 10 uM ATP; conditions: ATP 10 uM; read-out: %Ctrl@10 μM
T6 construct: gene STK4
In short: as §1

PDK1(h) = target: T7, PDK1(h) (Homo sapiens, UniProt O15530); test: biochemical; parameters: Eurofins recombinant human kinase profiling, remaining kinase activity as % of control, 10 uM ATP; conditions: ATP 10 uM; read-out: %Ctrl@10 μM
T7 construct: gene PDPK1
In short: as §1

PKCβII(h) = target: T8, PKCβII(h) (Homo sapiens, UniProt P05771); test: biochemical; parameters: Eurofins recombinant human kinase profiling, remaining kinase activity as % of control, 10 uM ATP; conditions: ATP 10 uM; read-out: %Ctrl@10 μM
T8 construct: gene PRKCB; isoform beta II
In short: as §1

PKCθ(h) = target: T9, PKCθ(h) (Homo sapiens, UniProt Q04759); test: biochemical; parameters: Eurofins recombinant human kinase profiling, remaining kinase activity as % of control, 10 uM ATP; conditions: ATP 10 uM; read-out: %Ctrl@10 μM
T9 construct: gene PRKCQ
T9 sequence (Q04759 whole entry): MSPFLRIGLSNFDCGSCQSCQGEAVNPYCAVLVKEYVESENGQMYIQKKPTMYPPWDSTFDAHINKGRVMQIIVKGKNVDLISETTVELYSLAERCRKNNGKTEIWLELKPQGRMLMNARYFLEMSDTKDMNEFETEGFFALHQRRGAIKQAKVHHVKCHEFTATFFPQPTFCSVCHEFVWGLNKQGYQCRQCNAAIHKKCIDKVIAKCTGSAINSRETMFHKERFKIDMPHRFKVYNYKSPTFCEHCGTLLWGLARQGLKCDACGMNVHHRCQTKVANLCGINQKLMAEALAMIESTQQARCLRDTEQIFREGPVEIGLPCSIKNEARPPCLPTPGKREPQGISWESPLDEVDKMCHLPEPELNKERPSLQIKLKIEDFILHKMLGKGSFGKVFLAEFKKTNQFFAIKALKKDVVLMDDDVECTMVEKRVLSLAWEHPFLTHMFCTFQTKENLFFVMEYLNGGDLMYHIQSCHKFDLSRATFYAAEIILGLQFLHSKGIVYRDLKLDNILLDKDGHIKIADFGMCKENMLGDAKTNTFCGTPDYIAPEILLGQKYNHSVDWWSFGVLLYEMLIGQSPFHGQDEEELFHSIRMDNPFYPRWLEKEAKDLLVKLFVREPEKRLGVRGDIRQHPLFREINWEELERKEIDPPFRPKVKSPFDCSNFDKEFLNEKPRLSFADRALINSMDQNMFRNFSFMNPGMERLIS
In short: as §1

PTK5(h) = target: T10, PTK5(h) (Homo sapiens, UniProt P42685); test: biochemical; parameters: Eurofins recombinant human kinase profiling, remaining kinase activity as % of control, 10 uM ATP; conditions: ATP 10 uM; read-out: %Ctrl@10 μM
T10 construct: gene FRK
In short: as §1

Rsk3(h) = target: T11, Rsk3(h) (Homo sapiens, UniProt Q15349); test: biochemical; parameters: Eurofins recombinant human kinase profiling, remaining kinase activity as % of control, 10 uM ATP; conditions: ATP 10 uM; read-out: %Ctrl@10 μM
T11 construct: gene RPS6KA2
In short: as §1

SAPK2a(T106M)(h) = target: T12, SAPK2a(T106M)(h) (Homo sapiens, UniProt Q16539, T106M); test: biochemical; parameters: Eurofins recombinant human kinase profiling, remaining kinase activity as % of control, 10 uM ATP; conditions: ATP 10 uM; read-out: %Ctrl@10 μM
T12 construct: gene MAPK14
T12 sequence (Q16539 whole entry T106M): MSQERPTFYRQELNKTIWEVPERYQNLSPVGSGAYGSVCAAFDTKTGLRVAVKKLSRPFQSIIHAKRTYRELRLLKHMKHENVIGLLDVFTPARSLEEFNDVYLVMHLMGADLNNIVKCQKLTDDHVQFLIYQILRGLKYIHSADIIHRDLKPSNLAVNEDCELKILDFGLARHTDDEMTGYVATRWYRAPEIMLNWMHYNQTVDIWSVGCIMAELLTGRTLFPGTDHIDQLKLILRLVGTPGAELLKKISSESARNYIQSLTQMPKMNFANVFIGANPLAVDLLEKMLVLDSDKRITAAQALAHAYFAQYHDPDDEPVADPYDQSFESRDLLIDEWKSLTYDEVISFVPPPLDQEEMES
In short: as §1

Syk(h) = Syk(h) (Homo sapiens, UniProt P43405); test: biochemical; parameters: Eurofins recombinant human kinase profiling, remaining kinase activity as % of control, 10 uM ATP; conditions: ATP 10 uM; read-out: %Ctrl@10 μM
In short: as §1

TAF1L(h) = TAF1L(h) (Homo sapiens, UniProt Q8IZX4); test: biochemical; parameters: Eurofins recombinant human kinase profiling, remaining kinase activity as % of control, 10 uM ATP; conditions: ATP 10 uM; read-out: %Ctrl@10 μM
Sequence of TAF1L(h) (Q8IZX4 whole entry): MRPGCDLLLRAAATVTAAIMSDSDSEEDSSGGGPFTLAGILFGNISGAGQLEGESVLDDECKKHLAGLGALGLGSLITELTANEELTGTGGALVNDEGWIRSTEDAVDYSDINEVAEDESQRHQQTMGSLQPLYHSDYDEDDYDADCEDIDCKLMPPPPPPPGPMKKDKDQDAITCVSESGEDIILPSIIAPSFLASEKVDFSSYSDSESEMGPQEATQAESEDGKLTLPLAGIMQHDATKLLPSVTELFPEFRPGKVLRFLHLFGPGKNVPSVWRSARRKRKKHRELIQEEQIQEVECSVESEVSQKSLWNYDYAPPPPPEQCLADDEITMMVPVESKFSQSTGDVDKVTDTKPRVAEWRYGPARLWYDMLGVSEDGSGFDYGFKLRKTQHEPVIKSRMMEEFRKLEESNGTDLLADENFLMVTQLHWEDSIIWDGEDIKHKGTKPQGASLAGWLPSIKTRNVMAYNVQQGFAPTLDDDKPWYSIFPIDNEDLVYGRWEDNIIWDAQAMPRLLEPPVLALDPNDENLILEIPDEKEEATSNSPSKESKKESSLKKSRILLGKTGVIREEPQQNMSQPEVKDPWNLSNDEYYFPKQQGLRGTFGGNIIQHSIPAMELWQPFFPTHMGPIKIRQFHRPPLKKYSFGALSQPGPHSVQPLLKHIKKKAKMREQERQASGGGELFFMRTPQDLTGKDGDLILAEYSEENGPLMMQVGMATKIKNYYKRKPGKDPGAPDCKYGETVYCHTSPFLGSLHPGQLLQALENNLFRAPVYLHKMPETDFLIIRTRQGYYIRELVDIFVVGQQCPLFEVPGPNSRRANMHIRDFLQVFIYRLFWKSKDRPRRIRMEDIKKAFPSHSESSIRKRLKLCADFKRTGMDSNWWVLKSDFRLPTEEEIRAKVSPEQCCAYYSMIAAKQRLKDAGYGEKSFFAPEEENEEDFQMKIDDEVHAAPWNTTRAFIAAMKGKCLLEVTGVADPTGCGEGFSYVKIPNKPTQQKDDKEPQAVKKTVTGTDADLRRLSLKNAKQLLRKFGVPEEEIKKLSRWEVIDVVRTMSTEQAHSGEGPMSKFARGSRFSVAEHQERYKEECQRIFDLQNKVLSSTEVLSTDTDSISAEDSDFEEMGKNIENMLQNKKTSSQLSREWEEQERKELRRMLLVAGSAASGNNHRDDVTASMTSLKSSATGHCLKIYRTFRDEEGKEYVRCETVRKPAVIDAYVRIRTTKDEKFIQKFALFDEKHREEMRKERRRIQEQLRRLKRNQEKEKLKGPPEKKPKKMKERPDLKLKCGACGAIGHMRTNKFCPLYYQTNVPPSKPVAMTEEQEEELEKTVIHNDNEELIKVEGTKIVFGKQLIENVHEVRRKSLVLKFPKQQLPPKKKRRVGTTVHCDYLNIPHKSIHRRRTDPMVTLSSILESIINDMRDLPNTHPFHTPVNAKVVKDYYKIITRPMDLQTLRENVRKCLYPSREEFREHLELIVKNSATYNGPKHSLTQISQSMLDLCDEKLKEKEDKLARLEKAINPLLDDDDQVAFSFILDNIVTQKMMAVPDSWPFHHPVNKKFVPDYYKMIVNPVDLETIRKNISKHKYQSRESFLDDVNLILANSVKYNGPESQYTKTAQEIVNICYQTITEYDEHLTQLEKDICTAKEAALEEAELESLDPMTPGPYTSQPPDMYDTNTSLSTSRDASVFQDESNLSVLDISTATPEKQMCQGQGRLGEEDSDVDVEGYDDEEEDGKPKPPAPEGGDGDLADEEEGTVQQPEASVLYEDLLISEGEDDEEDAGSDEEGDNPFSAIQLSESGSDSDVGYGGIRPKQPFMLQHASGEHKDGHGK
In short: as §1

TLK1(h) = TLK1(h) (Homo sapiens, UniProt Q9UKI8); test: biochemical; parameters: Eurofins recombinant human kinase profiling, remaining kinase activity as % of control, 10 uM ATP; conditions: ATP 10 uM; read-out: %Ctrl@10 μM
Sequence of TLK1(h) (Q9UKI8 whole entry): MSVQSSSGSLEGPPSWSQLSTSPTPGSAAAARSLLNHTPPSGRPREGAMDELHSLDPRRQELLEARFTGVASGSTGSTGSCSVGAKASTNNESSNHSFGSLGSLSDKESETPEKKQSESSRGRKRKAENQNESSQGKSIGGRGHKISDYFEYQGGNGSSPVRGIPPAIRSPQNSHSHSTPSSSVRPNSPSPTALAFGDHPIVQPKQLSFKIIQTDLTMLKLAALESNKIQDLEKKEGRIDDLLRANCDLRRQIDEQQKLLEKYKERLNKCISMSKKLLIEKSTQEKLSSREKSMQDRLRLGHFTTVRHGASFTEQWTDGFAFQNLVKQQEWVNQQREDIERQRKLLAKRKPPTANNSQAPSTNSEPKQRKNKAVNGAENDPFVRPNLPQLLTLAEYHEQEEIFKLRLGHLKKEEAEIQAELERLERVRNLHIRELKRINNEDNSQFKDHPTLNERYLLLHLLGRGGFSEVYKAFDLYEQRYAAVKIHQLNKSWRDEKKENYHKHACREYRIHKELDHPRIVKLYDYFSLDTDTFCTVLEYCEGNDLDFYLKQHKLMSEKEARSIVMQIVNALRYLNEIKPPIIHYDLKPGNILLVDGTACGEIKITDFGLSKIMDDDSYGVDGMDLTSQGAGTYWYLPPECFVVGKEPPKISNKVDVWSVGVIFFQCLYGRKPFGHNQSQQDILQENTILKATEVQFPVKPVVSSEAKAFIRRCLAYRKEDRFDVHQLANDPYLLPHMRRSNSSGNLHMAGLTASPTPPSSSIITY
In short: as §1

eEF-2K(h) = target: T13, eEF-2K(h) (Homo sapiens, UniProt O00418); test: biochemical; parameters: Eurofins recombinant human kinase profiling, remaining kinase activity as % of control, 10 uM ATP; conditions: ATP 10 uM; read-out: %Ctrl@10 μM
T13 construct: gene EEF2K
T13 sequence (O00418 whole entry): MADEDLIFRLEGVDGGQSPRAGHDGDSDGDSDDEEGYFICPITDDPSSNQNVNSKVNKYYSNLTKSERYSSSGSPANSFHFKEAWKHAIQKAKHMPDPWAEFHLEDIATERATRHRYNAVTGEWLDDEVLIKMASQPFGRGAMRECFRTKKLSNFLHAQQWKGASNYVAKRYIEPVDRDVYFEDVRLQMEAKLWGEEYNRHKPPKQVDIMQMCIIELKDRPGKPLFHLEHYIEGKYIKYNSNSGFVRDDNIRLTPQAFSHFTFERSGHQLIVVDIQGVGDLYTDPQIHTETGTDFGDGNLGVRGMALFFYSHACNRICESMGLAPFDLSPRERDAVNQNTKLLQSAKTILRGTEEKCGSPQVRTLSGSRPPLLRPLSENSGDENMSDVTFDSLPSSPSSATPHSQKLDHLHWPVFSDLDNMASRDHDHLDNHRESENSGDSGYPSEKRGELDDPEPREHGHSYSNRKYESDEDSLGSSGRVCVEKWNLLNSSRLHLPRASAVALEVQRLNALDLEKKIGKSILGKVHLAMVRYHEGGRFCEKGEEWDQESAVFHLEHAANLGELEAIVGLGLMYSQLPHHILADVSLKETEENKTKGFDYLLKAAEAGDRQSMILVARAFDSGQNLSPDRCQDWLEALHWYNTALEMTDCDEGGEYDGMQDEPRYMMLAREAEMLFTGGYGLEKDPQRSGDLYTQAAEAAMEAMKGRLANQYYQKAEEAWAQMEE
In short: as §1

prohibitin 2 (PHB2) = prohibitin 2 (PHB2) (Homo sapiens, UniProt Q99623); test: SPR on purified recombinant PHB2 […]-194; DSF shift […] °C; DARTS in cells; assay type: binding; parameters: PHB2 1–194 (6× His tag)
Sequence of prohibitin 2 (PHB2) (Q99623 1-194): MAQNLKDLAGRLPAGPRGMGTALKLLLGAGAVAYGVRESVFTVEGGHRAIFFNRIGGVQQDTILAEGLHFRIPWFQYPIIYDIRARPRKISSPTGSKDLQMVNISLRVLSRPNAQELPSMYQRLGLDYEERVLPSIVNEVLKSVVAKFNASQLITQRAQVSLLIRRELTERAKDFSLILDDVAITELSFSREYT

In the case of `C1=C(c2nc(-c3cnn(C4CCNCC4)c3)cn3cc(-c4ccccc4)nc23)CCOC1` [YL-939], the remaining activity at 10 µM (ALK(h)) is reported as 106%, the remaining activity at 10 µM (ALK1(h)) is reported as 94% and the remaining activity at 10 µM (EphB2(h)) is reported as 81%. For the same compound, the remaining activity at 10 µM (FGFR2(N549H)(h)) was 94%, the remaining activity at 10 µM (GSK3β(h)) was 96% and the remaining activity at 10 µM (HRI(h)) was 111%. It also gave a remaining activity at 10 µM (IKKβ(h)) of 87%, a remaining activity at 10 µM (MLCK(h)) of 60% and a remaining activity at 10 µM (MST1(h)) of 91%. For the same compound, the remaining activity at 10 µM (PDK1(h)) was 127%, the remaining activity at 10 µM (PKCβII(h)) was 95% and the remaining activity at 10 µM (PKCθ(h)) was 93%. For the same compound, the remaining activity at 10 µM (PTK5(h)) was 75%, the remaining activity at 10 µM (Rsk3(h)) was 96% and the remaining activity at 10 µM (SAPK2a(T106M)(h)) was 105%. It also gave a remaining activity at 10 µM (Syk(h)) of 62%, a remaining activity at 10 µM (TAF1L(h)) of 84% and a remaining activity at 10 µM (TLK1(h)) of 71%. It also gave a remaining activity at 10 µM (eEF-2K(h)) of 93% and a Kd (prohibitin 2 (PHB2)) of 3.43 µM.
